“Also recorded” adds a separate entry of the source.
Columns and labels:
[1] = Hepatocyte stability determination; assay type: in vitro ADME; settings: monkey and human hepatocytes
Experimental: Incubation was conducted in 96-well cell culture plate format. The plates were labeled as T0, T15, T30, T60, T90, T0-MC, T90-MC and Blank, respectively. All plates were pre-warmed for 10 to 20 mins at 37±1°C in an incubator of 5% CO2 and saturated humidity. The vials of cryopreserved SD rat, beagle dog, cynomolgus monkey and human hepatocyte were removed from the liquid nitrogen container and immediately immersed in a water bath (the setting temperature was 37°C) for approximately 90 secs to allow the ice pellets melted. The melted ice pellets were transferred into pre-warmed 40 mL of Thawing Medium tubes mixed well by gently inverting the tubes then centrifuged at 100 ×g for 5 mins at room temperature. The supernatants were discarded and cell pellets were re-suspended by adding appropriate volumes of pre-warmed WEM. The cells viability of each species was determined using Trypan Blue exclusion. The viabilities of rat, dog, cynomolgus and human hepatocytes were 89.0%, 94.3%, 88.0% and 91.8%, respectively. Cells were finally diluted to 0.625×10^6 cells/mL with pre-warmed WEM. At each corresponding time point, the sample reactions were stopped by adding 150 μL of acetonitrile containing 200 ng/mL tolbutamide and 200 ng/mL labetalol as internal standards. All sample plates were thoroughly mixed and centrifuged at 3220 ×g for 20 mins. […]

bone marrow cells = assay: Micronucleus study by oral administration in rats (GLP); assay type: in vivo, SD rats; settings: 500, 1000 and 2000 mg/kg/day
Experimental: Bacterial reverse mutation assay (Study no. YL18407). The bacterial reverse mutation assay of STP0404 was performed in two conditions (with or without metabolic activation) for the dose range-finding test (doses of STP0404rangingfrom 2.29 to 5,000μg/plate) and the main test (doses of STP0404 ranging from 19.5 to 5,000 μg/plate) in comparison with negative control (DMSO) and active controls (sodium azide, 2-(2-furyl)-3-(5-nitro-2-furyl) acrylamide, 2-aminoanthracene, 9-aminoacridine hydrochloride). Salmonella typhimurium (TA100, TA1535) and Escherichia coli (WP2uvrA) were used for detection of base-pair substitutions. Salmonella typhimurium (TA98, TA1537) was used for detection of frameshift mutations. Chromosomal Aberration Test of STP0404 in Cultured Mammalian Cells (Study no. YL18408). Presence/absence of genotoxicity of STP0404 was determined using chromosomal aberration test carried out in CHL/IU cells. The test comprised a dose range-finding test and a main test. Micronucleus Study of STP0404 by oral administration in Rats (Study no. YL18409). STP0404 was administered orally to SD rats (3/group in preliminary test and 6/group in the main test) at dose levels of 500, 1000 and 2000 mg/kg/day once daily for 2 days in a two-test study (preliminary test and main test) to investigate the genotoxicity profile of STP0404. […] Bone marrow smear slides were evaluated (INA Research, Japan).

SIVmac239 = assay: In vitro efficacy test against SIVmac239 in CEMx174 cells (p27); assay type: cell-based, SIV; settings: p27 assay
Experimental: CEMx174 cells were infected with HIV-1 primary isolate 89.6 (From infectious clone p89.6, NIH AIDS Reagent Program) at approximately at 10% of cell population determined by FACS analyses. To determine antiviral activity during virus production, STP0404 was added at concentration in the range of 0.1 nM—10 μM during media exchange at 4 hrs post-infection. DMSO was used as a negative control. Cell-free supernatants were measured for p24 antigen production, 5 days post-infection. The anti-HIV-1 efficacy of the two enantiomers of STP0404 were also determined by using the same protocol. All assays were conducted in triplicates. […] For SIVmac239, CEMx174 cells were infected with viral supernatant containing SIVmac293 at 50,000 TCID50/mL (kind gift from Dr. G. Silvestri, Emory Yerkes National Primate Research Center) with 100 μL/10^6 cells at varying concentrations of STP0404, BI224436, and Raltegravir, and the same above protocol was followed except for that p27 capsid antigen content was measured daily for 5 days post infection.
Supplementary file ppat.1009671.s004.tiff: S1 Fig In vitro efficacy tests of STP0404, BI224436 and Raltegravir against SIVmac239 in CEMx174 cell culture. CEMx174 cells were infected with SIVmac239 with various concentrations of STP0404, BI224436, and Raltegravir, and the viral production was determined by p27 assay at 5 days post infection. […]

[2] = test system: HIV-GFP in LEDGF/p75 knockout Jurkat cell lines (1-F10 and 2-C10); assay: HIV-1 inhibition in infecting LEDGF/p75 knockout cells; assay type: cell-based; settings: 60 nM
Experimental: To test for STP0404’s inhibitory effects during the late stage of HIV-1 life cycle such as the maturation step, we employed the “producing cells” setup. In T75 tissue culture flasks, 293T cells were pre-treated with and without STP0404 (0 and 60 nM) for 2 hrs prior to transfection with pD3-HIV (13 μg) and pVSV-g (6 μg), using 0.3 mg/ml polyethylenimine. After 24 hrs incubation at 37°C, the supernatant was removed and replaced with fresh media with and without STP0404 (0 and 60 nM). 48 hrs later, D3-HIV vector from each treatment group was concentrated from the collected supernatant via ultracentrifugation (22,000 rpm for 2 hrs). Following p24 quantification, using 96-well plates, similar amount of respective D3-HIV vector was used to transduce Jurkat cells in triplicates for 48 hrs. The cells were harvested and fixed with 3.7% formaldehyde before being analyzed for GFP expression using FACS (Miltenyi Biotec, VYB). Separately, the “infecting cells” setup was used to investigate the inhibitory effects of STP0404 against the early stages of HIV-1 life cycle such as the integration and transcription steps. […] All data were analyzed using GraphPad Prism (Version 9). Unpaired t tests were performed to determine the significance of the readings in respective experimental set up relative to the untreated controls. […]

## Cc1nc2c(c(C)c(C)n2Cc2cnn(C)c2)c(-c2ccc(Cl)cc2)c1[C@H](OC(C)(C)C)C(=O)O [STP0404]
[1]
  metabolic stability in hepatocytes (in words): much longer metabolic stability
Bone marrow cells
  bone marrow cell proliferation inhibitory potential: lacked
  micronucleus-inducing potential: lacked
SIVmac239
  inhibition of SIVmac239: did not inhibit; also recorded: failed to inhibit
[2]
  infection of LEDGF/p75 knockout Jurkat T cells: failed to significantly inhibit infection
